Experimental data: BigSolDB 2.1

CCOc1ncc(C)c2c1[C@H](c1ccc(C#N)cc1OC)C(C(N)=O)=C(C)N2
solubility (mole fraction)
Details | in 2-butanone | in acetone | in acetonitrile | in dichloromethane | in ethanol | in ethyl acetate | in isopropanol | in isopropyl acetate | in methanol | in methyl acetate
273.15 K | 0.0031 | 0.00376 | 0.000808 | 0.0047 | 0.000949 | 0.00114 | 0.000229 | 0.000378 | 0.004 | 0.00127
278.15 K | 0.00347 | 0.00407 | 0.000973 | 0.00506 | 0.00115 | 0.00128 | 0.000333 | 0.000459 | 0.00422 | 0.00136
283.15 K | 0.00376 | 0.00449 | 0.00111 | 0.00565 | 0.00135 | 0.00143 | 0.000443 | 0.000563 | 0.0045 | 0.0015
288.15 K | 0.0041 | 0.00508 | 0.00129 | 0.00622 | 0.00156 | 0.00157 | 0.000554 | 0.000647 | 0.00484 | 0.00166
293.15 K | 0.0044 | 0.00545 | 0.00144 | 0.00669 | 0.00182 | 0.0017 | 0.000682 | 0.000728 | 0.00515 | 0.00182
298.15 K | 0.00468 | 0.00577 | 0.00166 | 0.00724 | 0.00206 | 0.00182 | 0.000822 | 0.000809 | 0.00553 | 0.00197
303.15 K | 0.00508 | 0.00614 | 0.0019 | 0.00766 | 0.00233 | 0.00195 | 0.000984 | 0.00089 | 0.00599 | 0.00211
308.15 K | 0.00542 | 0.00665 | 0.00217 | 0.00814 | 0.00261 | 0.00211 | 0.00122 | 0.000979 | 0.00638 | 0.00229
313.15 K | 0.00587 | 0.00725 | 0.00247 | – | 0.00299 | 0.00225 | 0.00152 | 0.00113 | 0.00684 | 0.00248
